The text below walks through data of US20150105252A1, “SUBSTITUTED PYRAZOLES AS HERBICIDES” (E I DU PONT DE NEMOURS AND COMPANY, priority 2013, published 2015).

The test system of experiment [1] is foxtail, giant. The experiment is described as follows: Test A preemergence. Format: in vivo, Setaria faberii. As to conditions: preemergence. In a few lines:
(§1)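 Scoring was visual, on a scale where 100 means complete control and 0 means no effect, comparing treated with untreated plants around 10 days post-application. Compounds in surfactant-containing non-phytotoxic solvent were sprayed onto soil preemergence or onto one- to two-leaf seedlings (2–10 cm) postemergence.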

The test system of experiment [2] is sedge, umbrella. The experiment is described as follows: Test B flood. Format: in vivo, Cyperus difformis. As to conditions: 250 g ai/ha, visual rating on 0 to 100 scale (0 no effect, 100 complete control), 13 to 15 days. In outline: (§2)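 Flooded-pot test: compound dosed into 3 cm of standing water above soil when plants had two leaves. Visual control ratings (0–100) versus untreated plants after 13–15 d.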

Experiment [3] deals with morningglory. The experiment is described as follows: Test A preemergence. As to conditions: preemergence. The format is in vivo, Ipomoea spp. In outline:
as §1

Experiment [4] concerns corn. The experiment is described as follows: Test A preemergence. Format: in vivo, Zea mays. As to conditions: preemergence. In outline: as §1
Experiment [5] concerns velvetleaf. The experiment in a line: Test A preemergence. Format: in vivo, Abutilon theophrasti. As to conditions: preemergence. In outline: as §1
For experiment [6], the system named is pigweed. The experiment is described as follows: Test A postemergence. Format: in vivo, Amaranthus retroflexus. In a few lines: as §1
For experiment [7], the system named is ducksalad. The experiment in a line: Test B flood. Format: in vivo, Heteranthera limosa. As to conditions: 250 g ai/ha, visual rating on 0 to 100 scale (0 no effect, 100 complete control), 13 to 15 days. In outline: as §2
Experiment [8] deals with wheat. The experiment in a line: Test A postemergence. The format is in vivo, Triticum aestivum. In outline:
as §1

Experiment [9] has as its system crabgrass, large. The experiment is described as follows: Test A postemergence. The format is in vivo, Digitaria sanguinalis. In a few lines:
as §1

[10] abbreviates: 125 g ai/ha, visual injury, 0 to 100 scale, approx. 10 days.
Setting [11] is: 500 g ai/ha, visual injury after approx. 10 days, 0 to 100 scale (0 no effect, 100 complete control).
Setting [12] is: Postemergence, 500 g ai/ha, 0 to 100 scale (0 no effect, 100 complete control).
[13] abbreviates: postemergence, 125 g ai/ha, about 10 days, visual rating on 0 to 100 scale (0 no effect, 100 complete control).
The mark [14] stands for this setting: Postemergence, 125 g ai/ha, 0 to 100 scale, 0 no effect, 100 complete control.

For the molecule `CCCc1cc(C(=O)NCC(F)(F)F)nn1Cc1cc(C(F)(F)F)nn1C` [Compound 138], the “Foxtail, Giant plant response rating” value in experiment [1] (setting [10]) and in experiment [1] (setting [11]) was 100 throughout. Further, the “Plant response rating, Sedge, Umbrella” value in experiment [2] worked out at 90. In addition, the figures for the “Morningglory plant response rating” value in experiment [3] (setting [10]) and in experiment [3] (setting [11]) were 90 and 100, respectively. The “Corn plant response rating” value in experiment [4] (setting [10]) turned out to be 10; in [4] (setting [11]) it was 90. The “Velvetleaf plant response rating” value in experiment [5] (setting [10]) and in experiment [5] (setting [11]) was 100 in each case. In addition, the “Pigweed plant response rating” value in experiment [6] (setting [12]) and in experiment [6] (setting [13]) was 100 in each case. Moreover, the “Plant response rating, Ducksalad” value in experiment [7] worked out at 80. Besides, the “Wheat plant response rating” value in experiment [8] (setting [12]) was 90; in [8] (setting [13]), 80. The “Crabgrass, Large plant response rating” value in [9] (setting [12]) and in experiment [9] (setting [13]) was 100 throughout.

Regarding `CCc1cc(C(=O)NCC(F)(F)F)nn1Cc1cc(OC(F)F)nn1C` [Compound 206], the “Foxtail, Giant plant response rating (0 to 100 scale)” value in [1] (125 g ai/ha, visual injury approx. 10 days after treatment) is 0. The “Foxtail, Giant plant response rating” value in [1] (setting [11]) is 100. The “Plant response rating, Sedge, Umbrella” value in [2] is 0. The “Pigweed plant response rating” value is recorded as 80 in experiment [6] (setting [14]) and 100 in [6] (setting [12]). Moreover, the “Plant response rating, Ducksalad” value in experiment [7] was determined as 0. Moreover, the “Wheat plant response rating” value turned out to be 10 in [8] (setting [14]) and 20 in experiment [8] (setting [12]).
